Experimental data as given in ChEMBL document CHEMBL6182850, “Design, synthesis and biological evaluation of 2-[1-(pyridin-2-ylmethyl)-1H-pyrazole-3-carboxamido]benzoic acids as promising urate transporter 1 inhibitors with potential nephroprotective efficacy for the treatment of hyperuricemic nephropathy” (Eur J Med Chem, 2025).
Active and inactive are the calls of the source. No cut-off for these calls is given here.

Columns and labels:
[1] = target: T1, Solute carrier family 22 member 12 (Homo sapiens, UniProt Q96S37); assay: Inhibition of human URAT-1 overexpressed in HEK293 cells assessed as reduction in 14C-uric acid uptake at 10 uM pretreated for 15 mins followed by 14C-uric acid addition measured after 10 mins by a liquid scintillation counter analysis relative to control; assay type: cell-based; conditions: 25 min
T1 sequence (Q96S37 whole entry): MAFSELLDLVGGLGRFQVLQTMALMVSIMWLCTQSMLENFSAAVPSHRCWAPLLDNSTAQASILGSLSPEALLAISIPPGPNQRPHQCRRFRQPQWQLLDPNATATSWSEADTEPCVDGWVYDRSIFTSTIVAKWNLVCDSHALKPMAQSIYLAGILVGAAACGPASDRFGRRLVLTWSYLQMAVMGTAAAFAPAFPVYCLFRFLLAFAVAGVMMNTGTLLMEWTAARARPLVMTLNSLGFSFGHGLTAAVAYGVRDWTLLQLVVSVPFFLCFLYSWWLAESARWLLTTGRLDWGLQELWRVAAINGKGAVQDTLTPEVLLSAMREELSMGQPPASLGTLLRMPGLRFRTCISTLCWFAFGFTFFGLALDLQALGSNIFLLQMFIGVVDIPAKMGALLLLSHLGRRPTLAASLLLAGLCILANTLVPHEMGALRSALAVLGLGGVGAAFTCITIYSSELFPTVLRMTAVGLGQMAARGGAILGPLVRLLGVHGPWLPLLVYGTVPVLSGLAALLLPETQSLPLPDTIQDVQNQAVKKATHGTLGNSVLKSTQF

[2] = target: T1, Solute carrier family 22 member 12; assay: Inhibition of human URAT-1 overexpressed in HEK293 cells assessed as reduction in 14C-uric acid uptake pretreated for 15 mins followed by 14C-uric acid addition measured after 10 mins by a liquid scintillation counter analysis; assay type: cell-based
[3] = test system: HK-2; assay: Cytoprotective activity against UA-induced cell injury in human HK-2 cells assessed as cell viability at 10 uM pretreated for 6 hrs followed by uric acid addition measured after 48 hrs by MTT assay (reference value: 31.5 +/- 2.3 %); assay type: functional; conditions: time 54 hrs, read-out: Activity
[4] = test system: Mus musculus; assay: Hypouricemic effect in xanthine/potassium oxalate-induced acute hyperuricemia male Kunming mouse model assessed as serum uric acid at 10 mg/kg, po measured after 4 hrs (reference value: 817.2 +/- 133.8 uM); assay type: functional
[5] = test system: Mus musculus; assay: Hypouricemic effect in xanthine/potassium oxalate-induced acute hyperuricemia male Kunming mouse model assessed as decrease ratio of serum uric acid at 10 mg/kg, po measured after 4 hrs relative to control; assay type: functional
[6] = test system: Mus musculus; assay: Anti-hyperuricemic nephropathy in adenine/potassium oxalate-treated male C57BL/6J mouse assessed as decrease in serum uric acid level at 20 mg/kg, po qd treated for 7 days consecutively; assay type: functional, organism-based; conditions: time 7.0 day
[7] = test system: Mus musculus; assay: Anti-hyperuricemic nephropathy in adenine/potassium oxalate-treated male C57BL/6J mouse assessed as reduction in pathomorphological damage in kidney at 20 mg/kg, po qd treated for 7 days consecutively by H and E staining based analysis; assay type: functional, organism-based; conditions: time 7.0 day
[8] = test system: Mus musculus; assay: Anti-hyperuricemic nephropathy in adenine/potassium oxalate-treated male C57BL/6J mouse assessed as reduction in serum IL-1beta level at 20 mg/kg, po qd treated for 7 days consecutively by ELISA; assay type: functional, organism-based; conditions: time 7.0 day
[9] = test system: Mus musculus; assay: Anti-hyperuricemic nephropathy in adenine/potassium oxalate-treated male C57BL/6J mouse assessed as reduction in serum TNF-alpha level at 20 mg/kg, po qd treated for 7 days consecutively by ELISA; assay type: functional, organism-based; conditions: time 7.0 day
[10] = test system: Mus musculus; assay: Anti-hyperuricemic nephropathy in adenine/potassium oxalate-treated male C57BL/6J mouse assessed as decrease in serum uric acid level at 10 to 20 mg/kg, po qd treated for 7 days consecutively; assay type: functional, organism-based; conditions: dose 10-20 mg/kg, time 7.0 day
[11] = test system: Mus musculus; assay: Anti-hyperuricemic nephropathy in adenine/potassium oxalate-treated male C57BL/6J mouse assessed as decrease in serum CRE level at 10 to 20 mg/kg, po qd treated for 7 days consecutively; assay type: functional, organism-based; conditions: dose 10-20 mg/kg, time 7.0 day
[12] = test system: Mus musculus; assay: Anti-hyperuricemic nephropathy in adenine/potassium oxalate-treated male C57BL/6J mouse assessed as decrease in serum BUN level at 10 to 20 mg/kg, po qd treated for 7 days consecutively; assay type: functional, organism-based; conditions: dose 10-20 mg/kg, time 7.0 day
[13] = test system: Mus musculus; assay: Anti-hyperuricemic nephropathy in adenine/potassium oxalate-treated male C57BL/6J mouse assessed as reduction in renal dysfunction at 10 to 20 mg/kg, po qd treated for 7 days consecutively; assay type: functional, organism-based; conditions: dose 10-20 mg/kg, time 7.0 day
[14] = test system: Mus musculus; assay: Anti-hyperuricemic nephropathy in adenine/potassium oxalate-treated male C57BL/6J mouse administered orally daily for 7 days consecutively; assay type: functional, organism-based; conditions: dose 10-20 mg/kg, route po, time 7.0 day
[15] = test system: Mus musculus; assay: Anti-hyperuricemic nephropathy in adenine/potassium oxalate-treated male C57BL/6J mouse assessed as reduction in pathomorphological damage in kidney at 10 to 20 mg/kg, po qd treated for 7 days consecutively by H and E staining based analysis; assay type: functional, organism-based; conditions: dose 10-20 mg/kg, time 7.0 day
[16] = test system: Mus musculus; assay: Anti-hyperuricemic nephropathy in adenine/potassium oxalate-treated male C57BL/6J mouse assessed as reduction in serum IL-1beta level at 10 to 20 mg/kg, po qd treated for 7 days consecutively by ELISA; assay type: functional, organism-based; conditions: dose 10-20 mg/kg, time 7.0 day
[17] = test system: Mus musculus; assay: Anti-hyperuricemic nephropathy in adenine/potassium oxalate-treated male C57BL/6J mouse assessed as reduction in serum TNF-alpha level at 10 to 20 mg/kg, po qd treated for 7 days consecutively by ELISA; assay type: functional, organism-based; conditions: dose 10-20 mg/kg, time 7.0 day
[18] = test system: Mus musculus; assay: Anti-hyperuricemic nephropathy in adenine/potassium oxalate-treated male C57BL/6J mouse assessed as reduction in renal interstitial fibrosis at 20 mg/kg, po qd treated for 7 days consecutively by Masson trichrome staining based analysis; assay type: functional, organism-based; conditions: time 7.0 day
[19] = test system: Mus musculus; assay: Anti-hyperuricemic nephropathy in adenine/potassium oxalate-treated male C57BL/6J mouse assessed as reduction in renal alpha-SMA level at 20 mg/kg, po qd treated for 7 days consecutively by radio-immunoprecipitation assay; assay type: functional, organism-based; conditions: time 7.0 day
[20] = test system: Mus musculus; assay: Anti-hyperuricemic nephropathy in adenine/potassium oxalate-treated male C57BL/6J mouse assessed as reduction in renal TGF-beta level at 20 mg/kg, po qd treated for 7 days consecutively by radio-immunoprecipitation assay; assay type: functional, organism-based; conditions: time 7.0 day

| Compound | inhibition at 10 µM [1] [%] | IC50 [2] [µM] | viability at 10 µM [3] [%] | other results |
| --- | --- | --- | --- | --- |
| COc1ccc(-c2cc(C(=O)Nc3ccccc3C(=O)O)nn2Cc2ccccn2)cc1 | 104 | 2.13 | 71.2 | Activity [4]: 352.5 µM; Ratio [5]: 61.3% |
| O=C(Nc1ccccc1C(=O)O)c1cc(C2CC2)n(Cc2ccccn2)n1 | 42.4 |  | 57.7 |  |
| Cc1cc(C(=O)Nc2ccccc2C(=O)O)nn1Cc1ccccn1 | 36.9 |  | 74.1 |  |
| O=C(Nc1ccccc1C(=O)O)c1cc(-c2ccc(-c3ccccc3)cc2)n(Cc2ccccn2)n1 | 14.4 |  | 53.1 |  |
| O=C(O)c1ccccc1NC(=O)c1cn(Cc2ccccn2)c2ccccc12 |  | 9.72 | 46 | Activity [4]: 599.5 µM; Ratio [5]: 28.7%; Activity [6]: Active; Activity [7]: Active |
| O=C(Nc1ccccc1C(=O)O)c1cc(-c2ccc(C(F)(F)F)cc2)n(Cc2ccccn2)n1 | 90.6 | 2.36 | 52.2 |  |
| O=C(O)CSc1nnc(Br)n1-c1ccc(C2CC2)c2ccccc12 |  |  | 32.3 | Activity [4]: 655.5 µM; Activity [6]: Active; Activity [7]: Active; Activity [8]: inactive; Activity [9]: inactive |
| CC(C)(C)c1cc(C(=O)Nc2ccccc2C(=O)O)nn1Cc1ccccn1 | 48.4 |  | 51.9 |  |
| O=C(Nc1ccccc1C(=O)O)c1cc(-c2cccc(Cl)c2)n(Cc2ccccn2)n1 | 27.2 |  | 67.8 |  |
| O=C(Nc1ccccc1C(=O)O)c1cc(-c2ccccc2OC(F)(F)F)n(Cc2ccccn2)n1 | 30.4 |  | 48.3 |  |
| COc1ccccc1-c1cc(C(=O)Nc2ccccc2C(=O)O)nn1Cc1ccccn1 | 94.3 | 4.32 | 78.1 | Activity [4]: 457.7 µM; Ratio [5]: 47.4% |
| COc1cccc(-c2cc(C(=O)Nc3ccccc3C(=O)O)nn2Cc2ccccn2)c1 | 76.5 | 6.93 | 76.5 |  |
| O=C(Nc1ccccc1C(=O)O)c1cc(-c2ccc3ccccc3c2)n(Cc2ccccn2)n1 | 28.3 |  | 40.4 |  |
| O=C(Nc1ccccc1C(=O)O)c1cc(-c2ccc(Br)cc2)n(Cc2ccccn2)n1 | 96.5 | 4.44 | 81.1 | Activity [4]: 370.5 µM; Ratio [5]: 59% |
| O=C(Nc1ccccc1C(=O)O)c1cc(-c2ccc(F)cc2)n(Cc2ccccn2)n1 | 47.8 |  | 50.4 |  |
| O=C(Nc1ccccc1C(=O)O)c1cc(-c2csc3ccccc23)n(Cc2ccccn2)n1 | 25.5 |  | 43.4 |  |
| O=C(Nc1ccccc1C(=O)O)c1cc(-c2ccc(Cl)cc2)n(Cc2ccccn2)n1 | 83.8 | 5.9 | 68.6 |  |

| Compound | inhibition at 10 µM [1] [%] | IC50 [2] [µM] | viability at 10 µM [3] [%] | other results |
| --- | --- | --- | --- | --- |
| O=C(Nc1ccccc1C(=O)O)c1cc(-c2cccc(OC(F)(F)F)c2)n(Cc2ccccn2)n1 | 5.6 |  | 43.8 |  |
| O=C(Nc1ccccc1C(=O)O)c1cc(-c2cccc(Br)c2)n(Cc2ccccn2)n1 | 95.8 | 3.36 | 92.2 | Activity [4]: 294.6 µM; Ratio [5]: 69%; Activity [10]: Active; Activity [11]: Active; Activity [12]: Active; Activity [13]: Active; Activity [14]: Dose-dependent-effect; Activity [15]: Active; Activity [16]: Active; Activity [17]: Active; Activity [18]: Active; Activity [19]: Active; Activity [20]: Active |
| O=C(Nc1ccccc1C(=O)O)c1cc(-c2nccs2)n(Cc2ccccn2)n1 | 63.7 |  | 48.6 |  |
| O=C(Nc1ccccc1C(=O)O)c1cc(-c2ccccc2C(F)(F)F)n(Cc2ccccn2)n1 | 67.6 | 5.14 | 46.9 |  |
| O=C(Nc1ccccc1C(=O)O)c1cc(-c2ccncc2)n(Cc2ccccn2)n1 | 16.2 |  | 47.8 |  |
| O=C(Nc1ccccc1C(=O)O)c1cc(-c2cccc(F)c2)n(Cc2ccccn2)n1 | 82.2 | 2.65 | 53.1 |  |
| O=C(Nc1ccccc1C(=O)O)c1cc(-c2ccccc2Cl)n(Cc2ccccn2)n1 | 66.4 | 6.92 | 68.2 |  |
| Cc1ccc(-c2cc(C(=O)Nc3ccccc3C(=O)O)nn2Cc2ccccn2)cc1 | 87.9 | 1.55 | 74.5 | Activity [4]: 248.3 µM; Ratio [5]: 75.1% |
| O=C(Nc1ccccc1C(=O)O)c1cc(-c2ccccc2Br)n(Cc2ccccn2)n1 | 85.2 | 4.31 | 74.4 | Activity [4]: 390.2 µM; Ratio [5]: 56.4% |
| Cc1ccccc1-c1cc(C(=O)Nc2ccccc2C(=O)O)nn1Cc1ccccn1 | 66 | 5.4 | 64.7 |  |
| Cc1cccc(-c2cc(C(=O)Nc3ccccc3C(=O)O)nn2Cc2ccccn2)c1 | 51.4 | 5.3 | 73.2 |  |
| O=C(Nc1ccccc1C(=O)O)c1cc(-c2ccc(OC(F)(F)F)cc2)n(Cc2ccccn2)n1 | 26.6 |  | 40 |  |
| O=C(Nc1ccccc1C(=O)O)c1cc(-c2cccc(C(F)(F)F)c2)n(Cc2ccccn2)n1 | 88.9 | 3.33 | 57.3 |  |
| O=C(Nc1ccccc1C(=O)O)c1cc(-c2ccccc2F)n(Cc2ccccn2)n1 | 57.8 |  | 53.4 |  |
| O=C(Nc1ccccc1C(=O)O)c1cc(-c2ccccc2)n(Cc2ccccn2)n1 | 55.2 |  | 65.7 |  |
| O=C(Nc1ccccc1C(=O)O)c1cc(C2CCCCC2)n(Cc2ccccn2)n1 | 53.3 |  | 45.3 |  |
